Test results from patent US20100190199A1, “GPR30 ESTROGEN RECEPTOR IN BREAST AND OVARIAN CANCERS” (Rhode Island Hospital, priority 2008, published 2010).

Key:
alpha and beta ERs = conditions: cited from earlier work
GPR30 = target: T1, GPR30 (Homo sapiens, UniProt Q99527); assay: Estrogen-mediated fibronectin (FN) matrix assembly by human breast cancer cells; assay type: cell-based; conditions: stimulation of human breast cancer cells
T1 construct: human SKBR3 breast cancer cells (Erα^−, ERβ^−, GPR30^+); endogenous in cells
T1 sequence (Q99527 whole entry): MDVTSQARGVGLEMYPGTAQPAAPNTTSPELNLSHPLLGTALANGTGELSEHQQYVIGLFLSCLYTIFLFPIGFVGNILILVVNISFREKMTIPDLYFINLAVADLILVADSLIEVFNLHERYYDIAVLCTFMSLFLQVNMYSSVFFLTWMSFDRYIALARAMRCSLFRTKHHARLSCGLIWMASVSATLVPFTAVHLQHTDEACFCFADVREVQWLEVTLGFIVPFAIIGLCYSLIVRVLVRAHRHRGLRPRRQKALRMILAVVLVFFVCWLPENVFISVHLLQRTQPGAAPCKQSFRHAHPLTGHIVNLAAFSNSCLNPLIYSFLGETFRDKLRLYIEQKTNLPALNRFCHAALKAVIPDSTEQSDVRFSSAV

EGFR = conditions: breast cancer cells; behave similarly to estradiol; cited from earlier work
ER+ ovarian cancer = conditions: ovarian cancer patients, second-line therapy, Phase II; cited from earlier work

SMILES	Binding preference ERα versus ERβ (alpha and beta ERs)	EGFR activation (EGFR)	also measured
C[C@]12CC[C@@H]3c4ccc(O)cc4CC[C@H]3[C@@H]1CC[C@@H]2O [17β-estradiol]	binds equally well to both receptors	–	–
C[C@]12CC[C@@H]3c4ccc(O)cc4C[C@@H](CCCCCCCCC[S+]([O-])CCCC(F)(F)C(F)(F)F)[C@H]3[C@@H]1CC[C@@H]2O (stereo partly drawn) [ICI 182,780]	–	capable of triggering EGFR activation in breast cancer cells	FN matrix assembly: recruitment of FN-engaged integrin α5β1 conformers to fibrillar adhesions and synthesis of FN fibrils (GPR30): resulted in the recruitment of FN-engaged integrin α5β1 conformers to fibrillar adhesions and the synthesis of FN fibrils
N#Cc1ccc(C(c2ccc(C#N)cc2)n2cncn2)cc1 [Letrozole]	–	–	Clinical response measured by ovarian cancer serum marker CA-125 (ER+ ovarian cancer): stable disease
O=C(c1ccc(OCCN2CCCCC2)cc1)c1c(-c2ccc(O)cc2)sc2cc(O)ccc12 [raloxifene]	bind preferentially to the alpha receptor	–	–
CC/C(=C(\c1ccccc1)c1ccc(OCCN(C)C)cc1)c1ccccc1 [tamoxifen]	–	capable of triggering EGFR activation in breast cancer cells	–
